Measured values: publication PMC9890698 (BMC Biology, 2023)
Where “and” joins values, the source holds several entries; their conditions need not be identical. Equal entries are not always repeated. *1 amine or outer side, *2 acyl side, *3 side chain or, on linkers, in order; H or OH if unused. Where a SMILES comes first, the peptide text is derived from it. Bridges are numbered along the chain shown (N, C = ends). [ ]: non-standard residue; d: D form. The star is where a group is joined. Leu(3R-OH,Nα-propionyl) = CCC(=O)N[C@H](C(=O)*)[C@H](O)C(C)C; X1 = CC(C)[C@@H](O[*:3])[C@H](N[*:1])C(=O)[*:2]; NMeT = CN[C@H](C(=O)O)[C@@H](C)O; dPhLac = O=C(O)[C@H](O)Cc1ccccc1; NMeA = CN[C@@H](C)C(=O)O; NMeDha = C=C(NC)C(=O)O

What was measured:
[1] = molecular target: T1, Human P2Y1-R (Homo sapiens, UniProt P47900); experiment: IP1 accumulation assay (HTRF) in HEK293T cells expressing P2Y1-R; type: cell-based; settings: ADP 100 μM, MRS2179 10 μM, Gq inhibitor 100 nM, 2 h, result in words
T1 construct: expressed in transfected cells; host or cells: HEK293T/17

[2] = test system: HEK293T cells (pcDNA3.1); experiment: IP1 accumulation assay (HTRF) in control HEK293T cells (pcDNA3.1); type: cell-based, Human; settings: pcDNA3.1, Gq inhibitor 100 nM, 2 h
From the text: Since Gαq protein activation is known to induce PLC activation leading to IP3 and subsequent cytosolic calcium release, we analyzed the constitutive Gαq-dependent P2Y1-R signaling by quantifying intracellular inositol monophosphate (IP1) using a monoclonal antibody-based competitive ELISA. IP1 is a downstream metabolite of IP3 that accumulates in cells following Gαq protein-coupled receptor activation, making it an ideal readout for Gαq protein-dependent signaling pathways.
(§1) Quantification of intracellular IP1 was performed using the HTRF (Homogeneous Time Resolved Fluorescence) IP1 competitive immunoassay (IP-One Tb kit. Cisbio. France) according to the manufacturer’s instructions. Briefly, 20,000 HEK293T/17 cells or 3.10^6 platelets were distributed in a 384-well white microplate (Greiner) and incubated with the indicated molecules for 30 min or 2 h at 37 °C in the presence of 50 mM of LiCl to prevent IP1 degradation. After addition of d2-labeled IP1 (acceptor) and anti-IP1-Cryptate (donor) for 1 h, the specific FRET signals were calculated by the fluorescence ratio of the acceptor and donor emission signal (665/620 nm) collected using a modified Infinite F500 (Tecan Group Ltd). Conversion of the HTRF ratio of each sample into IP1 concentrations was performed on the basis of a standard curve to determine the linear dynamic range of the assay.

[3] = test system: washed murine platelets (P2Y1-R/Gαq signaling); experiment: IP1 accumulation assay (HTRF) in washed murine platelets; type: cell-based, mouse; settings: Gq inhibitor 100 nM, 2 h
Procedure: (§2) As performed in HEK293T cells, we thus quantified intracellular IP1 levels to monitor Gαq protein-dependent signaling pathways.
Platelet-rich plasma (PRP) was obtained by mixing blood with 1 volume of modified Hepes Tyrode’s buffer (137 mM NaCl, 2 mM KCl, 12 mM NaHCO3, 0.3 mM NaH2PO4, 1 mM MgCl2, 2 mM CaCl2, 5.5 mM glucose, 5 mM HEPES, and 0.35% (w/v) BSA, pH 6.7) followed by a centrifugation at 150 g for 2 min at 37 °C. Then, platelets were pelleted by centrifugation at 1000 g for 4 min, resuspended in modified Hepes Tyrode’s buffer (pH 7.4), adjusted to 3.10^8 platelets/mL in the presence of 0.02 U/mL of apyrase and 10 μM indomethacin and rested for 45 minutes at 37°C before platelet stimulation. PGI2 (0.5 μM) was added before centrifugation steps to avoid platelet activation.
as §1

[4] = test system: washed human platelets (P2Y1-R/Gαq signaling); experiment: IP1 accumulation assay (HTRF) in washed human platelets; type: cell-based; settings: Gq inhibitor 100 nM, 2 h
Procedure: as §2
Human platelets were prepared from adult healthy volunteers free of antiplatelet or anti-inflammatory medication since at least ten days. […] After two steps of centrifugation and suspension in Tyrode’s buffer (140 mM NaCl, 5 mM KCl, 5 mM KH2PO4, 1 mM MgSO4, 10 mM HEPES, 5 mM glucose and 0.35% (w/v) BSA, pH 6,7), washed platelets were suspended in the same buffer adjusted to pH 7.4 and containing 1 mM CaCl2. The final platelet suspension was adjusted to 3.10^8 platelets/mL and rested for 45 min in the presence of 0.02 U/mL apyrase and 10 μM indomethacin at 37 °C prior experiments. PGI2 (0.5 μM) was added before centrifugation steps to avoid platelet activation.
as §1

[5] = test system: washed human platelets; settings: TRAP stimulation, result in words
Procedure: For platelet dense granule secretion, washed human platelets were stimulated with 50 μM TRAP (10 min, 37 °C) and stained with conjugated anti-CD63 FITC-conjugated antibody (BD Biosciences reference 557288. 1:5) for 15 min at room temperature. The platelets were then diluted into 1 mL PBS and samples were then kept in the dark until analysis by flow cytometry. The results are expressed as median fluorescence intensity (MFI).

[6] = test system: P2Y12-R; settings: result in words; cited from earlier work

T1 sequence (P47900 whole entry): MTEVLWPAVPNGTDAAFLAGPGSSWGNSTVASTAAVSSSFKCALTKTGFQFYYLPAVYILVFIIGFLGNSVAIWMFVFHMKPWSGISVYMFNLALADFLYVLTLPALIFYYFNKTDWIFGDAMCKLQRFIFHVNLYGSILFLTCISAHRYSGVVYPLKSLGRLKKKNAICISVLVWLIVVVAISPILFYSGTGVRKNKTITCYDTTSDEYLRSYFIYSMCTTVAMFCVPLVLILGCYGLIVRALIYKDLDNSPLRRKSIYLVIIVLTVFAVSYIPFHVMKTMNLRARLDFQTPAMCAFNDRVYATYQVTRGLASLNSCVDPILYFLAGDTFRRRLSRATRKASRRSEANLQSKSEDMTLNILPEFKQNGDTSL

Question: For `C=C1C(=O)N[C@@H](C)C(=O)N(C)[C@@H](C)C(=O)N[C@@H]([C@H](OC(=O)[C@@H](NC(=O)CC)[C@H](O)C(C)C)C(C)C)C(=O)N(C)[C@@H]([C@@H](C)OC)C(=O)O[C@H](C(C)C)[C@H](NC(C)=O)C(=O)O[C@H](Cc2ccccc2)C(=O)N1C` [FR900359] (Ac-[X1][dPhLac][NMeDha]A[NMeA][X1](Leu(3R-OH,Nα-propionyl))[NMeT](Me); ester 1-C), which “Effect on IP1 production” value [1] is on record?
Answer: Its value is “significantly reduced”.

Question: What about the “IP1 concentration” value [2] of the same molecule?
Answer: The value was 132.385 nM and 158.041 nM and 95.7319 nM and 85.9635 nM and 143.254 nM.

Question: And the “IP1 concentration (% matched basal values)” value ([3]; murine platelets, individual mice)?
Answer: The value was 27.5986 % matched basal values and 38.7127 % matched basal values and 47.9185 % matched basal values and 40.8858 % matched basal values and 59.9249 % matched basal values and 76.9346 % matched basal values and 9.098 % matched basal values and 14.2482 % matched basal values and 23.5315 % matched basal values and 11.8913 % matched basal values and 61.9938 % matched basal values and 36.9021 % matched basal values and 16.0009 % matched basal values.

Question: What about the “Effect on IP1 levels” value ([3]; washed murine platelets, ADP 100 μM, MRS2179 10 μM, apyrase 0.02 U/mL, result in words) of the same molecule?
Answer: The value was “inhibited”.

Question: What about the “IP1 concentration (% matched basal values)” value ([4]; human platelets, individual donors) of the same molecule?
Answer: Its value is 19.0758 % matched basal values and 11.9666 % matched basal values and 43.5394 % matched basal values and 60.8621 % matched basal values and 37.3209 % matched basal values and 49.8124 % matched basal values and 75.4834 % matched basal values and 64.9734 % matched basal values and 85.7248 % matched basal values and 88.8134 % matched basal values and 81.06 % matched basal values and 83.4552 % matched basal values and 77.0271 % matched basal values and 36.4555 % matched basal values and 43.6521 % matched basal values and 9.5459 % matched basal values.

Question: And the “Effect on IP1 levels” value ([4]; washed human platelets, ADP 100 μM, antagonists 10 μM, apyrase 0.02 U/mL, result in words)?
Answer: Its value is “inhibited”.

Question: With “thrombin receptor activating peptide [TRAP]” as the molecule, how does the “CD63 exposure at the platelet surface” value [5] read?
Answer: The value was “strong exposure of CD63”.

Question: For `CCCSc1nc(N[C@@H]2C[C@H]2c2ccc(F)c(F)c2)c2nnn([C@@H]3C[C@H](OCCO)[C@@H](O)[C@H]3O)c2n1` [ticagrelor], which “Behaviour at P2Y12-R constitutive signaling” value (shortened to “Behaviour”) [6] is on record?
Answer: Its value is “inverse agonists”.

Question: For `CSCCNc1nc(SCCC(F)(F)F)nc2c1ncn2[C@@H]1O[C@H](COP(=O)(O)OP(=O)(O)C(Cl)(Cl)P(=O)(O)O)[C@@H](O)[C@H]1O` [cangrelor], which “Behaviour” value [6] is on record?
Answer: Its value is “inverse agonists”.

Question: With `CCCCOC(=O)N1CCN(C(=O)[C@H](CP(=O)(O)O)NC(=O)c2cc(N3CC[C@H](OC)C3)nc(-c3ccccc3)n2)CC1` [selatogrel] as the molecule, how does the “Behaviour” value [6] read?
Answer: Its value is “inverse agonists”.
